These results are taken from paper PMC5790502, “The anti-rheumatic drug, leflunomide, synergizes with MEK inhibition to suppress melanoma growth” (Oncotarget, 2017).

Test [1] concerns A375 melanoma cells. The test is described as follows: Mitotracker green staining (mitochondrial mass). It is filed as cell-based, human. As for the experimental part:
www.impactjournals.com/oncotarget/ Oncotarget, Supplementary Materials 2017 The anti-rheumatic drug, leflunomide, synergizes with MEK inhibition to suppress melanoma growth
Mitochondrial membrane potential [ΔΨM] assay REFERENCES
A375 melanoma cells were seeded in 12 well plates at 1. Tap WD, Gong KW, Dering J, Tseng Y, Ginther C, Pauletti a density of 10,000 cells per 1 ml of medium per well. After G, Glaspy JA, Essner R, Bollag G, Hirth P, Zhang C, Slamon 24 hours, the cells were treated with vehicle or leflunomide. DJ. […] Haluska FG, Tsao H, Wu H, Haluska FS, Lazar A, Goel V. of fresh PBS before being analyzed on the BD AccuriTM C6 Genetic alterations in signaling pathways in melanoma. […] Samples were exposed to 488 nm excitation, Cancer Res. 2006; 12:2301s–2307s. with JC-1 green monomer fluorescence detected at 533/30 3. von Euw E, Atefi M, Attar N, Chu C, Zachariah S, Burgess BL, nm in the FL1 channel and JC-1 red aggregates fluorescence Mok S, Ng C, Wong DJ, Chmielowski B, Lichter DI, Koya RC, detected at 585/20 nm in the FL2 channel. […] Data selective MEK inhibitor TAK733 against cutaneous and uveal was analyzed using the BD AccuriTM C6 Software. melanoma cell lines. […]
BD AccuriTM C6 flow cytometer (with green fluorescence 6. Atefi M, Titz B, Tsoi J, Avramis E, Le A, Ng C, Lomova A, Lassen detected in the FL1 channel). […]

For a further test, the system named is SKmel28 melanoma cells. The test is described as follows: Cell viability assay (CellTiter-Glo). It is filed as cell-based. The conditions noted are these: Homo sapiens, SK-MEL-28, 72 hours treatment. As for the experimental part: (§1) Cells that had been seeded 24 hours earlier on poly-L-lysine coated 96-well plates (Sigma-Aldrich) to subconfluency, were treated with drugs at the indicated concentrations for 72 hours. Cytochalasin D (Sigma Aldrich) was used as a positive control. All conditions were repeated in triplicate. Cell viability was determined on day 5 using the CellTiter-Glo Luminescence assay (Promega), according to the manufacturer’s instructions. Luminescence from the plate was read on a BMG LabTech Omega Series plate reader (data analyzed using OMEGA software). Cell viability was calculated as a percentage of the mean vehicle control.
(§2) For pharmacological analysis, IC50 values were generated using Prism Graphpad software (Graphpad Software, Inc.) and calculated using a nonlinear regression model. Combinatorial drug synergy was assessed by determination of combination index (CI), which was calculated using CalcuSyn (Biosoft) software using the median effects methods as described by Chou and Talalay, CI values less than 0.7 indicated synergy, 0.7–0.9 weak synergy, 0.9–1.1 additivity, 1.1–1.45 indicated weak antagonism and greater than 1.45 antagonism.
(In general: In ATP-based viability assays light output follows the ATP content of the culture.)

Another test concerns M285 melanoma cells. In words: Cell viability assay (CellTiter-Glo). It is filed as cell-based. Conditions: Homo sapiens, 72 hours treatment. As for the experimental part: as §1, §2
For test [2], the system named is A375 melanoma cells. In words: Cell viability assay (CellTiter-Glo). It is filed as cell-based. Conditions: Homo sapiens, A-375, 72 hours treatment. As for the experimental part: as §1, §2
In test [3] the test system is Human embryonic kidney cells (HEK-293). In words: Cell viability assay (CellTiter-Glo). Conditions: HEK293, 72 hours treatment. It counts as cell-based. As for the experimental part: as §1, §2
Another test relates to M375 melanoma cells. The test is described as follows: Cell viability assay (CellTiter-Glo). It counts as cell-based. Conditions: Homo sapiens; M375; 72 hours treatment. As for the experimental part: as §1, §2
Test [4] deals with rhabdomyosarcoma cells (RD-1). The test is described as follows: Cell viability assay (CellTiter-Glo). It counts as cell-based. The conditions noted are these: Homo sapiens, RD1, 72 hours treatment. As for the experimental part:
as §1, §2

Another test concerns M296 melanoma cells. In words: Cell viability assay (CellTiter-Glo). It is filed as cell-based. Conditions: Homo sapiens, 72 hours treatment. As for the experimental part:
as §1, §2

For a further test, the system named is M229 melanoma cells. In words: Cell viability assay (CellTiter-Glo). It is filed as cell-based. The conditions noted are these: Homo sapiens, 72 hours treatment. As for the experimental part: as §1, §2
A further test deals with M202 melanoma cells. The test is described as follows: Cell viability assay (CellTiter-Glo). It counts as cell-based. The conditions noted are these: Homo sapiens, 72 hours treatment. As for the experimental part:
as §1, §2

In another test the test system is SKmel5 melanoma cells. In words: Cell viability assay (CellTiter-Glo). It is filed as cell-based. Conditions: Homo sapiens, SK-MEL-5, 72 hours treatment. As for the experimental part: as §1, §2
Test [5] deals with Primary human melanocytes adult (HEMa-LP). In words: Cell viability assay (CellTiter-Glo). It counts as cell-based. The conditions noted are these: Melanocyte, 72 hours treatment. As for the experimental part:
as §1, §2

Molecules are shown by their SMILES.

For `Cc1oncc1C(=O)Nc1ccc(C(F)(F)F)cc1` [Leflunomide, leflunomide], the “increase in the time to reach 5000 events by flow cytometry (sample cell density)” value in the test on A375 melanoma cells [1] (100 μM leflunomide relative to the 25 μM and 50 μM treated samples) came to 3 fold. Further, the “increase in the amount of green fluorescence (Mitotracker green) compared to the DMSO control” value with A375 melanoma cells [1] (100 μM leflunomide, 72 hours) is recorded as 3 fold. Further, the IC50 – broadly, the point on the concentration scale where inhibition reaches its midpoint – in the test with SKmel28 melanoma cells came out at 167 µM; with M285 melanoma cells, 61.5 µM; with A375 melanoma cells [2] it was 57.4 µM; in [3] it was 48.1 µM; in the test on M375 melanoma cells, 64.1 µM; in test [4] it was 84.2 µM. In addition, the IC50 was determined as 112 µM in the test with M296 melanoma cells; 58.2 µM with M229 melanoma cells; 68.1 µM with M202 melanoma cells; 122 µM in the test with SKmel5 melanoma cells; 148 µM in test [5].
